Values quoted from earlier work, collected in US6548270B1, “DNA encoding human acid-sensing ion channel BNaC4 (ASIC4)” (Ortho-McNeil Pharmaceutical, Inc., priority 2000, dated 2003).

Target: T1, Rat ASIC3 (Rattus norvegicus, UniProt O35240)
T1 sequence (O35240 1-533): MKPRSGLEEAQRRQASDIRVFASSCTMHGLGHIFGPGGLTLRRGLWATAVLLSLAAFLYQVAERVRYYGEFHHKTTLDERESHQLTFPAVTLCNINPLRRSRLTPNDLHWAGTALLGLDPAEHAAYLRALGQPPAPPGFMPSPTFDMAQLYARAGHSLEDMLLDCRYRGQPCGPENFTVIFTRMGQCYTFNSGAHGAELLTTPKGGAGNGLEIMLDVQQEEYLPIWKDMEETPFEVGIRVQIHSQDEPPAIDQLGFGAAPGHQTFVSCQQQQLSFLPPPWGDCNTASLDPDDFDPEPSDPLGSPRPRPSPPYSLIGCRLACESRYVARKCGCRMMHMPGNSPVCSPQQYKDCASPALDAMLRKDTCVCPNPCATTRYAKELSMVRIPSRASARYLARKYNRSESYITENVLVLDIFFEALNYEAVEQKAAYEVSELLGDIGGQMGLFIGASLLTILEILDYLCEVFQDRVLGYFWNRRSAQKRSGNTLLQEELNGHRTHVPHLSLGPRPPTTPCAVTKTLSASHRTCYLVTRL
Conditions: cited from earlier work

N=C(N)NC(=O)c1nc(Cl)c(N)nc1N [amiloride]
IC50 (rat ASIC3 fast component, read-out: Amiloride sensitivity, K0.5, fast component): ~60 µM
effect of amiloride on slow component (rat ASIC3 slow component): potentiated by amiloride (Waldmann
